# Read-outs that look alike come from different tables or passages of the source.
# Test system: selected body organs
# Details: 30 min
# Experimental: Each of four rabbits was injected intravenously with one of the following amounts of the solution obtained in Example 7: 0.01 mmoles/kg, 0.05 mmoles/kg, 0.10 mmoles/kg and 0.20 mmoles/kg. The rabbits were sacrificed 30 min post injection, and the proton relaxation values of selected body organs were measured with NMR, in vitro at 10 MHz.
smiles,measurement,setting,value
"Cc1ncc(COP(=O)(O)O)c(CN(CCN(CC(=O)[O-])Cc2c(COP(=O)(O)O)cnc(C)c2O)CC(=O)[O-])c1O.[Mn+2] [Mn(DPDP), sodium-calcium salt of a manganese chelate complex of N,N,-bis-(pyridoxal-5-phosphate)ethylenediamine-N,N'-diacetic acid or N,N'-bis(3-hydroxy-2-methyl-5-phosphonomethyl-4-pyridylmethyl)ethylenediamine-N,N'-diacetic acid]",uptake by the heart through the dose range studied,"0.05-0.20 mmol/kg, i.v.",continues to uptake
same,T1,"Blood, 0.01 mmol/kg i.v.",844 ms
same,T1,"Blood, 0.05 mmol/kg i.v.",613 ms
same,T1,"Blood, 0.10 mmol/kg i.v.",506 ms
same,T1,"Blood, 0.20 mmol/kg i.v.",411 ms
same,T1,"Brain, 0.01 mmol/kg i.v.",554 ms
same,T2,"Brain, 0.01 mmol/kg i.v.",76 ms
same,T1,"Brain, 0.05 mmol/kg i.v.",496 ms
same,T2,"Brain, 0.05 mmol/kg i.v.",82 ms
same,T1,"Brain, 0.10 mmol/kg i.v.",590 ms
same,T2,"Brain, 0.10 mmol/kg i.v.",90 ms
same,T1,"Brain, 0.20 mmol/kg i.v.",352 ms
same,T2,"Brain, 0.20 mmol/kg i.v.",66 ms
same,T1,"Fat, 0.05 mmol/kg i.v.",200 ms
same,T2,"Fat, 0.05 mmol/kg i.v.",139 ms
same,T1,"Fat, 0.10 mmol/kg i.v.",183 ms
same,T2,"Fat, 0.10 mmol/kg i.v.",115 ms
same,T1,"Fat, 0.20 mmol/kg i.v.",192 ms
same,T1,"Heart, 0.05 mmol/kg i.v.",353 ms
same,T2,"Heart, 0.05 mmol/kg i.v.",54 ms
same,T1,"Heart, 0.10 mmol/kg i.v.",300 ms
same,T2,"Heart, 0.10 mmol/kg i.v.",51 ms
same,T1,"Heart, 0.20 mmol/kg i.v.",205 ms
same,T2,"Heart, 0.20 mmol/kg i.v.",47 ms
same,T1,"Large Int., 0.01 mmol/kg i.v.",283 ms
same,T2,"Large Int., 0.01 mmol/kg i.v.",64 ms
same,T1,"Large Int., 0.05 mmol/kg i.v.",365 ms
same,T2,"Large Int., 0.05 mmol/kg i.v.",83 ms
same,T1,"Large Int., 0.10 mmol/kg i.v.",290 ms
same,T2,"Large Int., 0.10 mmol/kg i.v.",57 ms
same,T1,"Large Int., 0.20 mmol/kg i.v.",256 ms
same,T2,"Large Int., 0.20 mmol/kg i.v.",74 ms
same,T1,"Liver, 0.01 mmol/kg i.v.",176 ms
same,T2,"Liver, 0.01 mmol/kg i.v.",39 ms
same,T1,"Liver, 0.05 mmol/kg i.v.",76 ms
same,T2,"Liver, 0.05 mmol/kg i.v.",31 ms
same,T1,"Liver, 0.10 mmol/kg i.v.",65 ms
same,T2,"Liver, 0.10 mmol/kg i.v.",23 ms
same,T1,"Liver, 0.20 mmol/kg i.v.",68 ms
same,T2,"Liver, 0.20 mmol/kg i.v.",25 ms
same,T1,"Lung, 0.05 mmol/kg i.v.",575 ms
same,T2,"Lung, 0.05 mmol/kg i.v.",113 ms
same,T1,"Lung, 0.10 mmol/kg i.v.",435 ms
same,T2,"Lung, 0.10 mmol/kg i.v.",61 ms
same,T1,"Lung, 0.20 mmol/kg i.v.",376 ms
same,T2,"Lung, 0.20 mmol/kg i.v.",63 ms
same,T1,"Renal Cort., 0.01 mmol/kg i.v.",298 ms
same,T2,"Renal Cort., 0.01 mmol/kg i.v.",65 ms
same,T1,"Renal Cort., 0.05 mmol/kg i.v.",210 ms
same,T2,"Renal Cort., 0.05 mmol/kg i.v.",57 ms
same,T1,"Renal Cort., 0.10 mmol/kg i.v.",188 ms
same,T2,"Renal Cort., 0.10 mmol/kg i.v.",55 ms
same,T1,"Renal Cort., 0.20 mmol/kg i.v.",143 ms
same,T2,"Renal Cort., 0.20 mmol/kg i.v.",53 ms
same,T1,"Renal Med., 0.01 mmol/kg i.v.",502 ms
same,T2,"Renal Med., 0.01 mmol/kg i.v.",99 ms
same,T1,"Renal Med., 0.05 mmol/kg i.v.",223 ms
same,T2,"Renal Med., 0.05 mmol/kg i.v.",57 ms
same,T1,"Renal Med., 0.10 mmol/kg i.v.",209 ms
same,T2,"Renal Med., 0.10 mmol/kg i.v.",48 ms
same,T1,"Renal Med., 0.20 mmol/kg i.v.",127 ms
same,T2,"Renal Med., 0.20 mmol/kg i.v.",60 ms
same,T1,"Skel. Musc., 0.05 mmol/kg i.v.",494 ms
same,T2,"Skel. Musc., 0.05 mmol/kg i.v.",47 ms
same,T1,"Skel. Musc., 0.10 mmol/kg i.v.",425 ms
same,T2,"Skel. Musc., 0.10 mmol/kg i.v.",31 ms
same,T1,"Skel. Musc., 0.20 mmol/kg i.v.",232 ms
same,T2,"Skel. Musc., 0.20 mmol/kg i.v.",31 ms
same,T1,"Small Int., 0.01 mmol/kg i.v.",324 ms
same,T2,"Small Int., 0.01 mmol/kg i.v.",72 ms
same,T1,"Small Int., 0.05 mmol/kg i.v.",237 ms
same,T2,"Small Int., 0.05 mmol/kg i.v.",52 ms
same,T1,"Small Int., 0.10 mmol/kg i.v.",218 ms
same,T2,"Small Int., 0.10 mmol/kg i.v.",46 ms
